Measured values taken from patent EP0426804B1, “2-(2-HYDROXY-3-PHENOXYPROPYLAMINO)-ETHOXYBENZENE DERIVATIVES” (IMPERIAL CHEMICAL INDUSTRIES PLC, priority 1989, dated 1990).

Tests used:
[1] = test (d): metabolic rate (oxygen consumption) in cold adapted rats; type: in vivo; conditions: at 1mgkg⁻¹ p.o.
[2] = system: BAT mitochondria; experiment: test (b): GDP binding in BAT mitochondria of cold adapted rats, relative to isoprenaline; type: in vivo; conditions: dose necessary to produce 50% of the isoprenaline (1 mg/kg) effect on GDP binding
[3] = test (c): heart rate in rats adapted to a thermoneutral environment (D500 dose and selectivity index); conditions: ratio of D₅₀₀ to ED₅₀ in test (b)

| SMILES | metabolic rate [1] | ED₅₀ [2] | SI ([3]; oral) | SI ([3]; route not stated) |
| --- | --- | --- | --- | --- |
| CCCC(=O)Cc1ccc(OCCNCC(O)COc2ccccc2)cc1 (stereo not shown) [Example 5, 1-[4-(2-(2-hydroxy-3-phenoxypropylamino)ethoxy)phenyl]pentan-2-one] | 6.6 ml O₂ min ⁻¹Kg^.75 | 0.23 mgkg⁻¹ | > 100 |  |
| CC(C)NCC(O)c1ccc(O)c(O)c1 (stereo not shown) [isoprenaline, reference compound] |  |  |  | 0.06 |
